This is an account of results in patent publication US8318681B2, “Utilization of peptides as active ingredients for slimming” (ISP Investments Inc., priority 2006, dated 2012).

Ends that are not written are not given here.

The subject of this test is pre-adipocyte cell line 3T3-L1. Description: Activity of the peptides on adipocytes: 3T3-L1 pre-adipocytes differentiated into mature adipocytes, Oil Red staining of lipid vacuoles, microscope observation. It is filed as cell-based. Conditions: mature adipocytes from 3T3-L1, treated with solution containing the peptide. How it is done: The number and the size of the lipid vacuoles present in the mature adipocytes are evaluated by microscope observation after specific staining with the “Oil Red” stain.
The pre-adipocyte cells 3T3-L1 are seeded in Labteks and maintained until 100% confluence in DMEM 10% SVF culture medium. The cells are treated with the peptide of sequence ID N° (5), representative of the family of peptides per the invention, placed in 1% solution à 1% starting with a solution of 50 ppm. Nontreated controls were prepared in parallel.
Once confluence is achieved, the cells are cultivated in the presence of differentiation inducers (IBMX, dexamethasone and insulin), so as to bring about the final differentiation into mature adipocytes. The differentiated adipocytes are further incubated for 3 hours with the peptide being tested in a concentration of 1%. Nontreated controls were prepared in parallel.
The adipocytes are then fixed for 10 minutes in a 4% formol and NaCl solution, after which the “Oil Red” stain solution (Sigma, O-0625) is applied for 15 minutes. The cells are then rinsed with warm water and mounted on slides, in hydrophilic medium (Aquatex). The observation is done under an optical microscope.

As to GLYDNLE [sequence ID N^o (5)], the “morphology of mature adipocytes” value (versus nontreated controls (voluminous spherical shape)) is listed as “less rounded”. Also, the “content of intra-adipocyte lipid vesicles” value (versus nontreated controls, Oil Red stain) is “clearly diminished”.
